Experimental data reported in patent US9980936B2, “BH4 antagonists and methods related thereto” (Emory University, priority 2014, dated 2018).

Key:
[1] = tested on: Bcl2 and Bax in H460 xenograft tumor tissues; experiment: QD-IHF of Bcl2 and Bax conformational change in tumor tissues; format: in vivo, mice; settings: 14 days
From the text: Quantum dot-based immunohistofluorescence (QD-IHF) technology has recently been developed as a valuable tool for simultaneous and concurrent immunostaining of multiple biomarkers in formalin-fixed paraffin-embedded (FFPE) tissues, thereby allowing for quantification of several biomarkers simultaneously on the same tissue slide. To determine whether BDA-366 induces Bcl2 conformation change by exposure of its BH3 domain in tumor tissues and whether the BH3 domain-exposed Bcl2 activates Bax, conformational changes in both Bcl2 and Bax were simultaneously analyzed by QD-IHF on the same tissue slide.

[2] = tested on: wild type (WT) and Bax knockout (Bax−/−) MEF cells; experiment: apoptotic effect on WT and Bax knockout MEF cells; format: cell-based
Protocol: (§1) To further determine whether Bax is important for BDA-2 induction of apoptosis, the apoptotic effect of BDA-366 was tested on wild type (WT) and Bax knockout (Bax−/−) MEF cells. […] To test whether BDA-2/BH4 binding affects the IP3R/Bcl2 interaction and Ca2+ release, H460 cells were treated with increasing concentrations of BDA-366 for 24 h.

[3] = molecular target: purified, human Bcl2 protein (Homo sapiens, UniProt P10415); experiment: in vitro cell-free Bcl2 conformational change assay (IP with anti-Bcl2/BH3 domain antibody); format: biochemical
Sequence of purified, human Bcl2 protein (P10415 whole entry, the tested form may be a part): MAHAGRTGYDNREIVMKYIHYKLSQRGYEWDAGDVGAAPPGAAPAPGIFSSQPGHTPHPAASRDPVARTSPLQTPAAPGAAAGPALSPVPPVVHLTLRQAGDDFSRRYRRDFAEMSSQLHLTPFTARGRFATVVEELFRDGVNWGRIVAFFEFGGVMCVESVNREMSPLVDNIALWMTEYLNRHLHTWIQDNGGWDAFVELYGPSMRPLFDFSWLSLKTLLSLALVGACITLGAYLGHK
Protocol: To test whether BDA-2 directly induces Bcl2 conformational change, an in vitro cell-free assay was employed. Purified recombinant Bcl2 protein was incubated with increasing concentrations of BDA-2 in lysis buffer, followed by immunoprecipitation (IP) using the anti-Bcl2/BH3 domain antibody.

[4] = tested on: normal small airway epithelial cell line (SAEC); experiment: cell growth (SRB) and apoptosis (Annexin V/PI), normal cells; format: cell-based
H460 cells = experiment: IP3R/Bcl2 interaction and Ca2+ release; format: cell-based; settings: increasing concentrations, 24 h
Protocol: as §1

[5] = tested on: H1299 cells overexpressing Bcl2 AAAA mutant; experiment: cell survival of H1299 cells overexpressing compound Bcl2 AAAA mutant; format: cell-based
From the text: A panel of Bcl2 mutants were generated within the BH4 domain at the specific residues that were identified by the initial docking simulations, including D10A, N11A, R12A, E13A, M16A, K17A, H20A and D31A Bcl2 mutants. A compound Bcl2 mutant D10A/N11A/R12A/E13A (AAAA) was created. Recombinant proteins of these mutants were generated for BDA-2/Bcl2 binding analysis using a competitive fluorescence polarization. […] Second, WT and all Bcl2 mutants were exogenously overexpressed in H1299 cells that express undetectable levels of endogenous Bcl2.

CCN(CC)CC(O)CNc1ccc(NCC2CO2)c2c1C(=O)c1ccccc1C2=O (stereo not drawn) [BDA-366, 1-((3-(diethylamino)-2-hydroxypropyl)amino)-4-((oxiran-2-ylmethyl)amino)anthracene-9,10-dione]
6A7 binding to Bax (active form of Bax) in tumor tissues [1]: increased level of 6A7 binding to Bax
exposure of the Bcl2 BH3 domain in tumor tissues [1]: dose-dependent exposure of the Bcl2 BH3 domain in tumor tissues
total Bcl2 and Bax levels in tumor tissues [1]: no significant changes in total Bcl2 and Bax levels
resistance of Bax deficient MEF cells compared to WT MEF cells [2]: significantly resistant
direct induction of Bcl2 conformational change (BH3 exposure) [3]: enhanced the ability of the Bcl2/BH3 domain-specific antibody to bind Bcl2
sensitivity of normal cells [4]: less sensitive
Bcl2/IP3R binding (H460 cells): reduced Bcl2/IP3R binding
Ca2+ release (H460 cells): increased Ca2+ release
cell survival on exposure, AAAA mutant overexpressed [5]: significantly prolonged cell survival
